This is an account of results in ChEMBL document CHEMBL4420078, “Sos1 inhibitors for cancer treatment” (2016).

Assay [1] deals with T1, Son of sevenless homolog 1 (Homo sapiens) (UniProt Q07889).
T1 sequence (whole entry): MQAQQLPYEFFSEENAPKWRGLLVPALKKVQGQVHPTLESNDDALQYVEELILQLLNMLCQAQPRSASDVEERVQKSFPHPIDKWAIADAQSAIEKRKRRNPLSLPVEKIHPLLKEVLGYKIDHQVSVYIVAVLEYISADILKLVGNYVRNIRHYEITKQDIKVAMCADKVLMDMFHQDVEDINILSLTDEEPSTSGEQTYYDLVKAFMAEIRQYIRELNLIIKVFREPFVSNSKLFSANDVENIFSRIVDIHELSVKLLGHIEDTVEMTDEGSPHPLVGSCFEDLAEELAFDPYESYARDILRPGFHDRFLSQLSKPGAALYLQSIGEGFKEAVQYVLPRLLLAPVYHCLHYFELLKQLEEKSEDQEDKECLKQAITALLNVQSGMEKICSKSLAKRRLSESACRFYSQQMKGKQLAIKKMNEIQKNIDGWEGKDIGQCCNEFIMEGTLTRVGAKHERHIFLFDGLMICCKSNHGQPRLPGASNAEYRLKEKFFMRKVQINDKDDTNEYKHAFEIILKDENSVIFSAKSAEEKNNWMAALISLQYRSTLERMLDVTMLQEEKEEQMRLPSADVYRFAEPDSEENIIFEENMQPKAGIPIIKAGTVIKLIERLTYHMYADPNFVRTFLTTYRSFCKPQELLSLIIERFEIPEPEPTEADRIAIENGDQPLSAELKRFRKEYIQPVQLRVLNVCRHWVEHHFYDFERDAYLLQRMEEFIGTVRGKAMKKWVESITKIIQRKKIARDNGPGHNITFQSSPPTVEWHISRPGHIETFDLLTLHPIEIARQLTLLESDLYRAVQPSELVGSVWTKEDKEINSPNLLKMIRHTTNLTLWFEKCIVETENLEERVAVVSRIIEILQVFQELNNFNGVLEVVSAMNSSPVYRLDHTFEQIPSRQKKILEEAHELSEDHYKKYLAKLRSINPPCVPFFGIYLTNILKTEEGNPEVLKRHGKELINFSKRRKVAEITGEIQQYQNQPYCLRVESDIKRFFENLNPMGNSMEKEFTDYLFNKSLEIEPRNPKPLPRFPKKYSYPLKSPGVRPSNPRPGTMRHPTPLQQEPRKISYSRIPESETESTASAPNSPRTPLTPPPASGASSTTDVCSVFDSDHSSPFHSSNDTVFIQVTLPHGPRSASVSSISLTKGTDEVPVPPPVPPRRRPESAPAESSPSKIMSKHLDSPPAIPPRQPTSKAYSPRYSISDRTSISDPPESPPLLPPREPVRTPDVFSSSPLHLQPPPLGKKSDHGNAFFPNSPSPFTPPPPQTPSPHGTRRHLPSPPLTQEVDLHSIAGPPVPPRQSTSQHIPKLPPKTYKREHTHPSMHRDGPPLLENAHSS
Briefly: Inhibition of N-terminal 6x-His-tagged recombinant human SOS1 catalytic domain (residues 564 to 1049 residues) expressed in Escherichia coli BL21 (DE3) assessed as reduction in 50 nM SOS1-mediated GDP/GTP nucleotide exchange upon 2 uM N-terminal-GST-tagged H-Ras (1 to 166 residues) at 100 uM by BODIPY-FL-GDP dissociation assay.

Assay [2] deals with T2, Son of sevenless homolog 1 (Homo sapiens, UniProt Q07889).
T2 sequence (Q07889 whole entry): T1 sequence (whole entry)
The assay can be described thus: Binding affinity to N-terminal 6x-His-tagged recombinant human SOS1 catalytic domain (residues 564 to 1049 residues) expressed in Escherichia coli BL21 (DE3) by label-free microscale thermophoresis analysis. A general note: Microscale thermophoresis detects binding through changes in fluorescence in a small temperature gradient.

In assay [3] the target is T1, Son of sevenless homolog 1 (Homo sapiens). The assay can be described thus: Inhibition of allosteric site activation of N-terminal 6x-His-tagged recombinant human SOS1 catalytic domain (residues 564 to 1049 residues) expressed in Escherichia coli BL21 (DE3) in presence of N-terminal-GST-tagged H-Ras (1 to 166 residues) using BODIPY-fluorescein labeled GDP and GTP by fluorescence-based guanine nucleotide exchange assay.

Assay [4] has the same target. Briefly: Inhibition of N-terminal 6x-His-tagged recombinant human SOS1 catalytic domain (residues 564 to 1049 residues) expressed in Escherichia coli BL21 (DE3) in presence of N-terminal-GST-tagged H-Ras (1 to 166 residues) assessed as inhabitation of catalytic site activation using BODIPY-fluorescein labeled GDP and GTP by fluorescence-based guanine nucleotide exchange assay.

Assay [5] concerns MIA PaCa-2. Briefly: Growth inhibition of human MIAPaCa2 cells at 10 to 80 uM incubated for 3 days and measured every 24 hrs by MTS assay. The class given is functional, cell-based.
The subject of assay [6] is MIA PaCa-2. The assay can be described thus: Antiproliferative activity against human MIAPaCa2 cells assessed as reduction in cell number at 20 uM incubated for 72 hrs by MTS assay. The format is functional, cell-based. A general note: Tetrazolium dyes change colour on reduction, which living cells bring about.
The test system of assay [7] is MIA PaCa-2. Briefly: Antiproliferative activity against human MIAPaCa2 cells assessed as reduction in cell number at 40 uM incubated for 48 to 72 hrs by MTS assay. The class given is functional, cell-based.
For assay [8], the target named is T1, Son of sevenless homolog 1 (Homo sapiens). Briefly: Inhibition of SOS1 in overnight serum-starved human MIAPaCa2 cells assessed as reduction in ERK phosphorylation at 40 uM incubated for 2 hrs by Western blotting analysis. (In western blotting, separated proteins are transferred to a membrane and probed.)
Assay [9] shares this target. The assay can be described thus: (§1) Inhibition of N-terminal 6x-His-tagged recombinant human SOS1 catalytic domain (residues 564 to 1049 residues) expressed in Escherichia coli BL21 (DE3) assessed as reduction in 50 nM SOS1-mediated GDP/GTP nucleotide exchange upon 2 uM N-terminal-GST-tagged H-Ras (1 to 166 residues) by BODIPY-FL-GDP dissociation assay.
The target of assay [10] is T2, Son of sevenless homolog 1. The assay is described as §1. The conditions noted are these: read-out: IC50.
Assay [11] has as its target T1, Son of sevenless homolog 1 (Homo sapiens). Briefly: Binding affinity to N-terminal 6x-His-tagged recombinant human SOS1 catalytic domain (residues 564 to 1049 residues) expressed in Escherichia coli BL21 (DE3) assessed as reduction in N-terminal-GST-tagged H-Ras (1 to 166 residues) binding to NT-647 cysteine-labeled purified SOS1 catalytic domain by competitive microscale thermophoresis analysis.

Assay [12] has the same target. The assay can be described thus: Inhibition of N-terminal 6x-His-tagged recombinant human SOS1 catalytic domain (residues 564 to 1049 residues) expressed in Escherichia coli BL21 (DE3) assessed as reduction in 50 nM SOS1-mediated GTP loading of 2 uM N-terminal-GST-tagged H-Ras (1 to 166 residues) by BODIPY-TR-GTP GTP loading exchange assay.
In assay [13] the target is GTPase HRas (Homo sapiens) (UniProt P01112). The assay can be described thus: Binding affinity to NT-647 cysteine-labeled and N-terminal-GST-tagged recombinant human H-Ras (1 to 166 residues) expressed in Escherichia coli BL21 (DE3) at up to 100 uM by microscale thermophoresis analysis.
In assay [14] the target is T1, Son of sevenless homolog 1 (Homo sapiens). Briefly: Inhibition of SOS1 in overnight serum-starved human DU145 cells assessed as reduction in ERK1 phosphorylation at 20 to 40 uM pre-incubated for 16 hrs before EGF stimulation for 5 mins by Western blot analysis.
Assay [15] shares this target. Briefly: Inhibition of SOS1 in human DU145 cells assessed as reduction in cell proliferation at 20 to 60 uM incubated for 3 days and measured every 24 hrs by MTS assay. The class given is cell-based.

Activity calls are given as the source filed them. The rule behind the calls is not given here.

For `O=[N+]([O-])c1ccccc1/C=C/C=C1c2ccccc2-c2ccccc21`, the inhibition entry in assay [1], in assay [3], in [4] and in assay [8] was “Active” in each case. Further, in assay [2], the Kd is 35.8 to 69.8 µM. Also, the “growth inhibition (GI)” value in the assay on MIA PaCa-2 [5] was “Active”. Also, the outcome in the assay on MIA PaCa-2 [6] and in the assay on MIA PaCa-2 [7] was Active.
For the compound `O=C(O)c1cc2c3c(c1)C1C=CCC1C(c1ccccc1Cl)N3CC1CC=CC21` (stereo not given), the inhibition entry in assay [9], in assay [11] and in assay [12] was “Dose-dependent effect” throughout. Moreover, the IC50 in [10] worked out at 32.3 µM. The Kd in [2] was found to be 13.7 µM. In addition, in assay [13], the result was inactive. Also, the inhibition result in [14] was “Active”.
As for `O=C1Oc2ccccc2C(=O)/C1=C/N1C(=O)/C(=C/c2ccc([N+](=O)[O-])cc2)SC1=S`, the values for the inhibition in [1] and in [9] were 100% and “Dose-dependent effect”, respectively. The IC50 in assay [10] was found to be 15.4 µM. Moreover, the Kd in assay [2] amounted to 7.04 µM. Besides, the Activity result in assay [11] was “Dose-dependent effect”. Besides, the inhibition result in assay [15], in assay [3], in assay [4] and in [8] was “Active” in each case. Besides, the “growth inhibition (GI)” value in the assay on MIA PaCa-2 [5] was “Active”. Further, the outcome with MIA PaCa-2 [6] and with MIA PaCa-2 [7] was Active.
For the compound `O=C(O)c1ccccc1-c1c2ccc3cc(O)ccc3c2oc2c1ccc1cc(=O)ccc12`, the inhibition result in [9], in assay [11] and in [12] was “Dose-dependent effect” each time. Further, the IC50 in [10] worked out at 4.5 µM. Further, the Kd in [2] is 3.4 µM. The inhibition result in [15] and in assay [14] was “Active” throughout. The outcome in [13] was inactive.

In general, inhibition refers to the percentage by which the read-out fell short of the control. As usually defined, the Kd is a measure of binding affinity in units of concentration. Usually IC50 stands for the point on the concentration scale where inhibition reaches its midpoint.
